In patent US20110151485A1, “METHOD FOR SCREENING FOR ANTIANGIOGENIC AGENT, AND METHOD FOR SCREENING FOR ANTIANGIOGENIC SIGNAL GENE” (National University Corporation Tokyo Medical and Dental …, priority 2008, published 2011):

Columns and labels:
Assay type in all cases: cell-based
PKR [1] = experiment: fluorescent antibody staining with phospho-specific anti-PKR antibody, human umbilical vein endothelial cells
Procedure: Human umbilical endothelial cells cultured in HamF12K were treated with 40 μg/ml of rifampicin or 1.0×10^−9 M of endostatin, and maintained at 37° C. for 30 minutes. Cells were then stained using phospho-specific anti-PKR antibody as the primary antibody, and the presence of phosphorylated PKR was examined in the cells.
Similar experiments were also performed in human umbilical vein endothelial cells pre-treated with structural analog of PKR inhibitor (PKR negative) and then treated with 40 μg/ml rifampicin, as well as in human umbilical vein endothelial cells pre-treated with PKR inhibitor B (8-(imidazole-4-ylmethylene)-6H-azolidino [5,4-g]benzodiazole-7-one, 0.3 μM) and then treated with 40 μg/ml rifampicin or 1.0×10^−9 M endostatin, respectively.

PKR [2] = experiment: western blotting with phospho-specific anti-PKR antibody, aorta endothelial cells (rAEC); conditions: rat aorta derived primary endothelial cells, 4 or 8 hours
Procedure: Similarly, […] aorta endothelial cells (rAEC) were treated respectively with salubrinal (20 μM), rifampicin (40 μg/ml), or endostatin (1.0×10^−9 M); PKR inhibitor A (2-aminopurine, 10 mM) followed by endostatin (1.0×10^−9 M); PKR inhibitor B (8-(imidazole-4-ylmethylene)-6H-azolidino [5,4-g]benzodiazole-7-one, 0.3 μM) followed by rifampicin (40 μg/ml); and PKR inhibitor B (same as above, 0.3 μM) followed by endostatin (1.0×10^−9 M); and maintained at 37° C. for 4 or 8 hours. Total cell extracts from respective samples were subjected to western blotting analysis using phospho-specific anti-PKR antibody to determine the extent of PKR phosphorylation.

Flt gene = experiment: real-time quantitative RT-PCR, Flt gene, human umbilical vein endothelial cells; conditions: 4 to 8 hours
Procedure: (§2) Human umbilical vein endothelial cells cultured in HamF12K medium were treated with 40 μg/ml rifampicin or 1.0×10^−8 M endostatin, and maintained at 37° C. for 4 to 8 hours. […] After establishing the quantification condition, the amount of mRNA for these genes were quantified. […] Human umbilical vein endothelial cells cultured in HamF12K medium were treated with 20 μM salubrinal, and maintained at 37° C. for 4 to 8 hours. Subsequently, total cell extracts were subjected to real-time quantitative RT-PCR using TaqMan probe for ID1 gene, ID3 gene, integrinαv gene, Flt gene and Ephrin A1 gene, respectively. After establishing the quantification condition, the amount of mRNA for these genes were quantified.

Ephrin A1 gene = experiment: real-time quantitative RT-PCR, Ephrin A1 gene, human umbilical vein endothelial cells; conditions: 4 to 8 hours
Procedure: as §2

ID1 gene = experiment: real-time quantitative RT-PCR, ID1 gene, human umbilical vein endothelial cells; conditions: 4 to 8 hours
Procedure: as §2

integrinαv gene = experiment: real-time quantitative RT-PCR, integrinαv gene, human umbilical vein endothelial cells; conditions: 4 to 8 hours
Procedure: as §2

ID3 gene = experiment: real-time quantitative RT-PCR, ID3 gene, human umbilical vein endothelial cells; conditions: 4 to 8 hours
Procedure: as §2

PKR mRNA = experiment: real-time quantitative RT-PCR, PKR mRNA, human umbilical vein endothelial cells; conditions: 40 μg/ml rifampicin or 1.0×10^−8 M endostatin, 4 to 8 hours
Procedure: Human umbilical vein endothelial cells cultured in HamF12K medium were treated with 40 μg/ml rifampicin or 1.0×10^−8 M endostatin, and maintained at 37° C. for 4 to 8 hours. Subsequently, total cell extracts were subjected to real-time quantitative RT-PCR using TaqMan probe for PKR mRNA, and the amount of PKR mRNA was quantified. Similar processes were repeated for human umbilical vein endothelial cell samples that were transfected with PKR siRNA prior to rifampicin or endostatin treatment.

PKR [3] = experiment: western blotting with phospho-specific anti-PKR antibody, human umbilical vein endothelial cells (hUVEC); conditions: 40 μg/ml rifampicin or 1.0×10^−9 M endostatin, 10 to 240 minutes
Procedure: (§1) Human retina vessel endothelial cells (hREC) or human umbilical vein endothelial cells (hUVEC) cultured in HamF12K medium supplemented with 10% bovine fetal serum and growth factors were treated with either 40 μg/ml rifampicin or 1.0×10^−9 M endostatin, and maintained at 37° C. for 10 to 240 minutes. Total cell extracts from the maintained cells were then subjected to western blotting using phospho-specific anti-PKR antibody to examine the time course of PKR phosphorylation.

PKR [4] = experiment: western blotting with phospho-specific anti-PKR antibody, human retina vessel endothelial cells (hREC); conditions: 40 μg/ml rifampicin or 1.0×10^−9 M endostatin, 10 to 240 minutes
Procedure: as §1

[5] = hUVEC transfected with PKR siRNA prior to 40 μg/ml rifampicin or 1.0×10^−8 M endostatin
[6] = hUVEC, 40 μg/ml rifampicin or 1.0×10^−8 M endostatin

`O=C1Nc2ccc3ncsc3c2C1=Cc1cnc[nH]1` [PKR inhibitor B, reference compound] was tested, and the “effect of PKR inhibitor pre-treatment on PKR phosphorylation after rifampicin or endostatin treatment (fluorescent antibody)” value (PKR [1]; inhibitor 0.3 μM) was “did not occur” and the “effect of PKR inhibitor pre-treatment on rifampicin or endostatin induced PKR phosphorylation” value (PKR [2]; inhibitor 0.3 μM) was “did not induce PKR phosphorylation”.

In the case of `O=C(/C=C/c1ccccc1)NC(NC(=S)Nc1cccc2cccnc12)C(Cl)(Cl)Cl` (stereo not drawn) [salubrinal, reference compound], the “expression level of mRNA for Flt gene” value (Flt gene; hUVEC, 20 μM salubrinal) was “decrease”, the “expression level of mRNA for Ephrin A1 gene” value (Ephrin A1 gene; hUVEC, 20 μM salubrinal) was “decrease” and the “expression level of mRNA for ID1 gene” value (ID1 gene; hUVEC, 20 μM salubrinal) was “decrease”. The “expression level of mRNA for integrinαv gene” value (integrinαv gene; hUVEC, 20 μM salubrinal) was “decrease” and the “expression level of mRNA for ID3 gene” value (ID3 gene; hUVEC, 20 μM salubrinal) was “decrease”.

In the case of endostatin, the “decrease of expression of Flt gene in PKR siRNA treated samples” value (Flt gene; [5]) was “did not occur”, the “expression level of Flt gene” value (Flt gene; [6]) was “decreased” and the “PKR expression (PKR mRNA)” value (PKR mRNA) was “increased”. For the same molecule, the “decrease of expression of Ephrin A1 gene in PKR siRNA treated samples” value (Ephrin A1 gene; [5]) was “did not occur”, the “expression level of Ephrin A1 gene” value (Ephrin A1 gene; [6]) was “decreased” and the “phosphorylation of PKR” value (PKR [3]) was “enhanced”. For the same molecule, the “decrease of expression of ID1 gene in PKR siRNA treated samples” value (ID1 gene; [5]) was “did not occur”, the “expression level of ID1 gene” value (ID1 gene; [6]) was “decreased” and the “phosphorylation of PKR” value (PKR [4]) was “enhanced”. For the same molecule, the “decrease of expression of integrinαv gene in PKR siRNA treated samples” value (integrinαv gene; [5]) was “did not occur”, the “expression level of integrinαv gene” value (integrinαv gene; [6]) was “decreased” and the “PKR phosphorylation in the cell (fluorescent antibody)” value (PKR [1]; 40 μg/ml rifampicin or 1.0×10^−9 M endostatin, 30 minutes) was “induced enhancement of PKR phosphorylation”. The “PKR phosphorylation in cells pre-treated with specific PKR inhibitor (fluorescent antibody)” value (PKR [1]; PKR inhibitor B 0.3 μM, then 40 μg/ml rifampicin or 1.0×10^−9 M endostatin) was “did not occur”, the “phosphorylation of PKR in cells pre-treated with specific PKR inhibitor” value (PKR [2]; PKR inhibitor B 0.3 μM followed by rifampicin 40 μg/ml or endostatin 1.0×10^−9 M) was “did not induce PKR phosphorylation” and the “phosphorylation of PKR” value (PKR [2]; rifampicin 40 μg/ml or endostatin 1.0×10^−9 M) was “induced phosphorylation of PKR”. For the same molecule, the “decrease of expression of ID3 gene in PKR siRNA treated samples” value (ID3 gene; [5]) was “did not occur” and the “expression level of ID3 gene” value (ID3 gene; [6]) was “decreased”.
